Experimental findings from patent US7402399B2, “Receptor tyrosine kinase signaling pathway analysis for diagnosis and therapy” (Monogram BioSciences, Inc., priority 2003, dated 2008) are described below.

Data set [1] relates to Her1 phosphorylation. Kind of data set: eTag assay of cell lysates for Her1 receptor phosphorylation. Type of data set: cell-based, human. As to conditions: BT-20 cells, increasing EGF concentration. How it is done: Sample preparation was carried out essentially as described in Example 2.
Assay design: A monoclonal antibody specific to the receptor is separately conjugated with either a molecular tag or biotin (that is then linked to a photosensitizer via an avidin bridge), so that the cleaving probe and a binding compound compete to bind to the same epitope in this example. Another binding compound is used that consists of a second anibody recognizing an […] epitope on the receptor, so that a ratiometric signal can be generated as a measure of homodimerization. The signal derived from the second antibody also provides a measure of the total amount of receptor in a sample. The total amount of receptor is determined in a separate assay well. Receptor phosphorylation can be quantified together with either homodimerization or total receptor amount.
Procedure: The assay volume is 40 ul and the general procedure is similar to that of Example 2. Two assay wells, A and B, are set up for each sample to quantify homodimerization and total amount of receptor separately. […]

In data set [2] the target is T1, Her2-Her3 heterodimers (Homo sapiens, UniProt P04626+P21860).
T1 construct: endogenous in cells; host or cells: MCF-7
Description: eTag assay of cell lysates for Her2-Her3 heterodimers after ligand stimulation. Type of data set: cell-based. As to conditions: MCF-7 cells, increasing ligand concentrations (0-100 nM), 10 minutes at 37° C. The method, then: Measurements are made using three binding compounds and a cleaving probe as described below.
• 1. Serum-starve breast cancer cell line culture overnight before use. • 2. […] Aspirate culture media, transfer onto ice, and add lysis buffer to lyse cells in situ. • 4. Scrape and transfer lysate to microfuge tube. Incubate on ice for 30 min. Microfuge at 14,000 rpm, 4° C., for 10 min. (Centrifugation is optional.) • 5. Collect supernatants as lysates and aliquot for storage at −80° C. until use. Assay: Assay design: As illustrated diagrammatically in FIG. 4A, Her2-Her3 heterodimers (900) are quantified ratiometrically based on the binding of cleaving probe (902) and binding compounds (904), (906), and (908). A photosensitizer indicated by “PS” is attached to cleaving probe (902) via an avidin-biotin linkage, and binding compounds (904), (906), and (908) are labeled with molecular tags Pro4, Pro10, and Pro 11, respectively. Binding compound (904) is specific for a phosphorylation site on Her3. The total assay volume is 40 ul. The lysate volume is adjusted to 30 ul with lysis buffer. […]
Data Analysis: • 3. Normalize relative fluorescence units (RFU) signal of each molecular tag against CE reference standard A315 (a fluorescein-derivatized deoxyadenosine monophosphate that has known peak position relative to molecular tags from the assay upon electrophoretic separation). • 4. […]

In data set [3] the test system is intracellular phosphorylated tyrosine (Her receptor phosphorylation). Kind of data set: eTag assay of formalin fixed paraffin embedded cell pellets for receptor phosphorylation. The format is cell-based, human. As to conditions: 100 nM EGF vs non-stimulated. How it is done:
In this example, model fixed tissues made from pelleted cell lines were assayed for the presence of Her receptor dimers. The assay design for heterodimers was essentially the same as that described in FIG. 4A, with exceptions as noted below. That is, four components are employed: (i) a cleaving probe comprising a biotinylated monoclonal antibody conjugated to a cleavage-inducing moiety (in this example, a photosensitizer-derivatized streptavidin, as illustrated in FIG. 3E) and specific for one of the receptors of the dimer, (ii) a monoclonal antibody derivatized with a first molecular tag and specific for the same receptor as the cleaving probe, (iii) a monoclonal antibody derivatized with a second molecular tag and specific for the receptor opposite to that the cleaving probe is specific for, and (iv) a monoclonal antibody derivatized with a third molecular tag and specific for an intracellular phosphorylated tyrosine. The assay design for homodimers was essentially the same as that described in FIG. 1D, with exceptions as noted below.
In each case, model fixed tissues were prepared as follows: cells grown on tissue culture plates were stimulated with either EGF or HRG as described in the prior examples, after which they were washed and removed by scrapping. […]

Consider “EGF: epidermal growth factor, ligand used to stimulate cell lines”, for which the “quantity of Her1 phosphorylation” value in data set [1] is “increases”. Also, in data set [2], the “quantity of Her2-Her3 heterodimers” value is reported as “essentially no change”. For the same substance, the Her receptor phosphorylation result in data set [3] (fixed pellets of 22Rv1 cells) is reported as “up-regulation”. Moreover, in data set [3] (fixed pellets of MDA-MB468 cells), the intracellular phosphorylation entry is reported as “increases”.
